In ChEMBL document CHEMBL1201862, “PubChem BioAssay data set” (2004):
The source made the active and inactive calls. Cut-off read from the data, not from the text of the source: actives have a measured IC50 and inactives only a lower limit.

Target: Envelope glycoprotein gp160 (Human immunodeficiency virus 1, UniProt Q6QLK5)
Assay: cell-free HIV fusion peptide-binding blockers – biochemical, uHTS, fluorescence dequenching, […] (AID 1986)

Sequence of Envelope glycoprotein gp160 (Q6QLK5 whole entry, the tested form may be a part): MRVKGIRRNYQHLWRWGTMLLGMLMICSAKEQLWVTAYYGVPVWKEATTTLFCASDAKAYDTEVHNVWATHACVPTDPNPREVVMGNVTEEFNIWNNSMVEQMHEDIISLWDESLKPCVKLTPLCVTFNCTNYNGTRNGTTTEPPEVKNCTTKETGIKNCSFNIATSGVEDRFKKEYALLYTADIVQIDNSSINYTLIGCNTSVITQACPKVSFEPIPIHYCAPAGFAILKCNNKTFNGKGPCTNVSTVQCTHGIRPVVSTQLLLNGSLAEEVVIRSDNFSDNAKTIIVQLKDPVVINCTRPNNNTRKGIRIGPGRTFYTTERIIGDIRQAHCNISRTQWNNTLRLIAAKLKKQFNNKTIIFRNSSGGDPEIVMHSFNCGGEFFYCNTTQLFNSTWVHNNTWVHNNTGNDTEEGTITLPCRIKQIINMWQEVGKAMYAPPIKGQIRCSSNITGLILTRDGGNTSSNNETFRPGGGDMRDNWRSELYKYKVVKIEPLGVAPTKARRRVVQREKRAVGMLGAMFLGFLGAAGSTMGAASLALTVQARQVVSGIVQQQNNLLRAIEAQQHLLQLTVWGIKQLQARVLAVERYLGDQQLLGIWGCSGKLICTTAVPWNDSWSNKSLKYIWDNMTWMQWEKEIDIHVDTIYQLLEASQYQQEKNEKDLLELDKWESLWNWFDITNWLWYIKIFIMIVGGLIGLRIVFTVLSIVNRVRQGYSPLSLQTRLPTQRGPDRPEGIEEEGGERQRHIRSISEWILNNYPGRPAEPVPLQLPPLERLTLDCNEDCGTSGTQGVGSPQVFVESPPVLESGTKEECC

O=c1[nH]c(=S)[nH]c2c1C(c1ccc(Br)cc1)c1c([nH]c(=S)[nH]c1=O)O2
IC50: 11.3 µM (active)
